Measurements as given in PubChem BioAssay (NCI).
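Interpolation was linear, between the two tested concentrations surrounding the appropriate level; five concentrations were tested over 48 hours in 96-well plates. The concentration for 50% growth inhibition is given as GI50. TGI: concentration producing complete growth inhibition.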

Assays:
Experiment in all cases: NCI anticancer screen, dose series, 48 h; in the data active = GI50 below about 0.43 µM; inactive = the rest
[1] = test system: 786-0 renal
[2] = test system: A498 renal
[3] = test system: A549 NSCLC
[4] = test system: ACHN renal
[5] = test system: BT-549 breast
[6] = test system: CAKI-1 renal
[7] = test system: CCRF-CEM leukemia
[8] = test system: COLO 205 colon
[9] = test system: DU-145 prostate
[10] = test system: EKVX NSCLC
[11] = test system: HCC-2998 colon
[12] = test system: HCT-116 colon
[13] = test system: HCT-15 colon
[14] = test system: HL-60(TB) leukemia
[15] = test system: HOP-62 NSCLC
[16] = test system: HOP-92 NSCLC
[17] = test system: HS 578T breast
[18] = test system: HT29 colon
[19] = test system: IGROV1 ovarian
[20] = test system: K-562 leukemia
[21] = test system: KM12 colon
[22] = test system: LOX IMVI melanoma
[23] = test system: M14 melanoma
[24] = test system: MALME-3M melanoma
[25] = test system: MDA-MB-231 breast
[26] = test system: MDA-MB-435
[27] = test system: MOLT-4 leukemia
[28] = test system: NCI-H226 lung
[29] = test system: NCI-H23 lung
[30] = test system: NCI-H460 lung
[31] = test system: NCI/ADR-RES ovarian
[32] = test system: OVCAR-3 ovarian
[33] = test system: OVCAR-4 ovarian
[34] = test system: OVCAR-5 ovarian
[35] = test system: OVCAR-8 ovarian
[36] = test system: PC-3 prostate
[37] = test system: RPMI-8226 leukemia
[38] = test system: RXF 393 renal
[39] = test system: SF-268 CNS
[40] = test system: SF-295 CNS
[41] = test system: SF-539 CNS
[42] = test system: SK-MEL-2 melanoma
[43] = test system: SK-MEL-28 melanoma
[44] = test system: SK-MEL-5 melanoma
[45] = test system: SK-OV-3 ovarian
[46] = test system: SN12C renal
[47] = test system: SNB-19 CNS
[48] = test system: SNB-75 CNS
[49] = test system: SW-620 colon
[50] = test system: T-47D breast
[51] = test system: TK-10 renal
[52] = test system: U251 CNS
[53] = test system: UACC-257 melanoma
[54] = test system: UACC-62 melanoma
[55] = test system: UO-31 renal
[56] = test system: MCF7 breast
[57] = test system: SR leukemia
[58] = test system: NCI-H522 lung

O=C(OCc1ccccc1)c1nc2ccccc2n1S(=O)(=O)c1ccccc1
> 100 µM: TGI [1] | TGI [2] | TGI [3] | TGI [4] | TGI [5] | TGI [6] | TGI [7] | TGI [8] | TGI [9] | TGI [10] | TGI [11] | TGI [12] | TGI [13] | TGI [14] | TGI [15] | TGI [16] | TGI [17] | TGI [18] | TGI [19] | TGI [20] | TGI [21] | TGI [22] | TGI [23] | TGI [24] | TGI [25] | TGI [26] | TGI [27] | TGI [28] | TGI [29] | TGI [30] | TGI [31] | TGI [32] | TGI [33] | TGI [34] | TGI [35] | TGI [36] | TGI [37] | TGI [38] | TGI [39] | TGI [40] | TGI [41] | TGI [42] | TGI [43] | TGI [44] | TGI [45] | TGI [46] | TGI [47] | TGI [48] | TGI [49] | TGI [50] | TGI [51] | TGI [52] | TGI [53] | TGI [54] | TGI [55]

COc1cc(C(=O)O[C@H]2CCC3CCC2N3C)cc(OC)c1OC (stereo partly specified)
> 100 µM: TGI [1] | TGI [2] | TGI [3] | TGI [4] | TGI [7] | TGI [8] | TGI [9] | TGI [10] | TGI [11] | TGI [12] | TGI [13] | TGI [14] | TGI [15] | TGI [16] | TGI [17] | TGI [18] | TGI [20] | TGI [21] | TGI [22] | TGI [23] | TGI [24] | TGI [56] | TGI [25] | TGI [26] | TGI [27] | TGI [28] | TGI [29] | TGI [30] | TGI [31] | TGI [33] | TGI [34] | TGI [35] | TGI [37] | TGI [38] | TGI [39] | TGI [40] | TGI [41] | TGI [43] | TGI [44] | TGI [45] | TGI [46] | TGI [47] | TGI [48] | TGI [57] | TGI [49] | TGI [51] | TGI [52] | TGI [53] | TGI [55]

O=C(NCCn1ccnn1)Nc1ccccc1
> 100 µM: TGI [1] | TGI [3] | TGI [4] | TGI [5] | TGI [6] | TGI [7] | TGI [8] | TGI [9] | TGI [10] | TGI [11] | TGI [13] | TGI [14] | TGI [15] | TGI [16] | TGI [18] | TGI [19] | TGI [20] | TGI [21] | TGI [22] | TGI [23] | TGI [24] | TGI [56] | TGI [25] | TGI [26] | TGI [27] | TGI [29] | TGI [30] | TGI [58] | TGI [31] | TGI [34] | TGI [35] | TGI [36] | TGI [37] | TGI [39] | TGI [40] | TGI [42] | TGI [43] | TGI [44] | TGI [46] | TGI [47] | TGI [48] | TGI [57] | TGI [49] | TGI [51] | TGI [52] | TGI [53]

COc1ccc(/C=C(/C(=O)N2CCCCC2)c2cc(OC)c(OC)c(OC)c2)cc1
17.3 µM: TGI [9]
inactive: GI50 [2] 0.682 µM | GI50 [3] 1.5 µM | GI50 [4] 0.713 µM | GI50 [6] 0.492 µM | GI50 [7] 1.17 µM | GI50 [8] 0.664 µM | GI50 [9] 1.5 µM | GI50 [10] 3.4 µM | GI50 [11] 2.82 µM | GI50 [13] 0.579 µM | GI50 [14] 0.441 µM | GI50 [15] 0.911 µM | GI50 [16] 12.4 µM | GI50 [17] 0.966 µM | GI50 [19] 0.699 µM | GI50 [20] 0.452 µM | GI50 [21] 0.482 µM | GI50 [22] 1.04 µM | GI50 [23] 0.478 µM | GI50 [56] 0.454 µM | GI50 [25] 4.54 µM | GI50 [27] 2.06 µM | GI50 [28] 3.4 µM | GI50 [29] 3.88 µM | GI50 [30] 0.497 µM | GI50 [58] 1.7 µM | GI50 [31] 1.15 µM | GI50 [33] 18 µM | GI50 [34] 5.26 µM | GI50 [35] 6.12 µM | GI50 [36] 0.527 µM | GI50 [37] 4.13 µM | GI50 [39] 1.79 µM | GI50 [42] 0.967 µM | GI50 [43] 8.89 µM | GI50 [44] 0.753 µM | GI50 [46] 4.52 µM | GI50 [47] 0.946 µM | GI50 [48] 0.483 µM | GI50 [57] 0.593 µM | GI50 [49] 0.506 µM | GI50 [51] > 100 µM | GI50 [52] 1.48 µM | GI50 [53] > 100 µM | GI50 [54] 0.44 µM | GI50 [55] 4.76 µM
1.52 µM: TGI [32]
71.7 µM: TGI [2]
29.9 µM: TGI [5]
0.935 µM: TGI [26]
active: GI50 [1] 0.404 µM | GI50 [5] 0.417 µM | GI50 [12] 0.379 µM | GI50 [18] 0.412 µM | GI50 [26] 0.257 µM | GI50 [32] 0.325 µM | GI50 [40] 0.422 µM
43.9 µM: TGI [44]
4.1 µM: TGI [14]
4.9 µM: TGI [8]
> 100 µM: TGI [1] | TGI [3] | TGI [4] | TGI [6] | TGI [7] | TGI [10] | TGI [11] | TGI [12] | TGI [13] | TGI [15] | TGI [16] | TGI [17] | TGI [18] | TGI [19] | TGI [20] | TGI [21] | TGI [22] | TGI [23] | TGI [56] | TGI [25] | TGI [27] | TGI [28] | TGI [29] | TGI [30] | TGI [58] | TGI [31] | TGI [33] | TGI [34] | TGI [35] | TGI [36] | TGI [37] | TGI [39] | TGI [40] | TGI [42] | TGI [43] | TGI [46] | TGI [47] | TGI [48] | TGI [57] | TGI [49] | TGI [51] | TGI [52] | TGI [53] | TGI [54] | TGI [55]
